Assay results taken from US9322895B2, “Method of determining metabolic function using magnetic resonance spectroscopic imaging” (Greater Glasgow Health Board, priority 2009, dated 2016).

Experiments:
[1] = standard temperature and pressure; cited from earlier work
[2] = test system: anaesthetised rats following a middle cerebral artery occlusion (MCAO); assay: Localised 1H spectroscopy (PRESS) with oxygen challenge in rats following MCAO; assay type: in vivo; conditions: rat MCAO
Experimental: In-vivo MRI experiments were performed on anaesthetised rats following a middle cerebral artery occlusion (MCAO). The measurements included RARE T2 imaging, diffusion weighted imaging (DWI), perfusion weighted imaging (PWI), 1H localised spectroscopy and lactate difference imaging (LDI).
The first experiment used a standard localised spectroscopy sequence (PRESS) to acquire 1H spectra. One voxel was placed in the presumed penumbral region (as indicated by DWI/PWI mismatch), a second voxel was placed in the normal contralateral hemisphere (see FIG. 1)

## FC1(F)C(F)(F)C(F)(F)C2(F)C(F)(F)C(F)(F)C(F)(F)C(F)(F)C2(F)C1(F)F (stereo not shown) [Perflorodecalin]
[1]
  oxygen carried by 100 ml: 49 mL

## O=O [oxygen]
[2]; after the oxygen challenge
  lactate peak in the penumbra on returning to 100% inhaled air: increased back to previous level
[2]; challenge of 100% inhaled oxygen, voxel in DWI/PWI mismatch
  lactate peak in the penumbral region: significant decrease
[2]; challenge of 100% inhaled oxygen, voxel in normal contralateral hemisphere
  lactate peak in the contralateral region: remained unchanged
